Activity calls are given as the source filed them.
Key:
[1] = system: HeLa; test: ATP-based viability loss in HeLa cells – cell-based, CellTiter-Glo luminescence, cherry-pick samples, cytotoxicity control for MITF activator project, dose response (AID 540259); format: functional; conditions: Homo sapiens
[2] = biological target: T1, Protein skinhead-1 (Caenorhabditis elegans, UniProt P34707); format: functional
T1 sequence (P34707 whole entry): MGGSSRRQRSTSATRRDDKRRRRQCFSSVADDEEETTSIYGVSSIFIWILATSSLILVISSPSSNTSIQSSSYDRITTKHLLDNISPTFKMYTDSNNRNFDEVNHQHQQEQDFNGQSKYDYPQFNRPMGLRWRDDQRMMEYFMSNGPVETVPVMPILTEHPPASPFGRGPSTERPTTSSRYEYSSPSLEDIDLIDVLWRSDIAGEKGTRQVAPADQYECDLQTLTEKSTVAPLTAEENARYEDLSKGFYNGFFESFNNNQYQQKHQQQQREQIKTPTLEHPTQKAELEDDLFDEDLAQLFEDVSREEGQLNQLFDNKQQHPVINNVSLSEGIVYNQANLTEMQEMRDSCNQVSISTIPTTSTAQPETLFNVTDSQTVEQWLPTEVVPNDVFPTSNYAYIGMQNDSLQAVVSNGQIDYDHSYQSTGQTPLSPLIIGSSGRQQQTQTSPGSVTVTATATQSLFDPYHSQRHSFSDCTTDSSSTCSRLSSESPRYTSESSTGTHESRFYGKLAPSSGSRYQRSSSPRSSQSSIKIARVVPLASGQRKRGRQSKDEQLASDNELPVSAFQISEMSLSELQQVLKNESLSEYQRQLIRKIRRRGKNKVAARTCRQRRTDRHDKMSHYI

[3] = biological target: T2, High affinity choline transporter 1 (Homo sapiens, UniProt Q9GZV3); test: human choline transporter blockers, potency – cell-based, 5-point CRC, membrane potential dye, dose response (AID 504840); format: functional
T2 sequence (Q9GZV3 whole entry): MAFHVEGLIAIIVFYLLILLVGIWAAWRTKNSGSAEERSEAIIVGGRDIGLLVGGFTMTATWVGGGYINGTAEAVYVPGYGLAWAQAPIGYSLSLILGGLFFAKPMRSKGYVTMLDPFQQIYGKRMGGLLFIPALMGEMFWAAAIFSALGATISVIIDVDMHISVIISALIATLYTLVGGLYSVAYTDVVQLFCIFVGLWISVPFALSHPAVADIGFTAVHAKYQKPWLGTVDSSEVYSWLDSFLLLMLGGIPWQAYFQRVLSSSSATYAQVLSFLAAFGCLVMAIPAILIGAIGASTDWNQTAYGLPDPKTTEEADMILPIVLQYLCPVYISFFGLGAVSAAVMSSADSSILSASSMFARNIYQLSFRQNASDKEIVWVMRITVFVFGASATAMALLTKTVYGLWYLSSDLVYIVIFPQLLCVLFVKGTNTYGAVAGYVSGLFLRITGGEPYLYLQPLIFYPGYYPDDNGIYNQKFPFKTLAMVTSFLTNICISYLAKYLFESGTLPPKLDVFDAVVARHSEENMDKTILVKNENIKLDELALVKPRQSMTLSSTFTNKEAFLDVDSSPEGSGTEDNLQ

[4] = NIH-3T3 fibroblast cytotoxicity, dose response, cytotoxicity control, cell-based, fluorescence, Alamar Blue, secondary assay (AID 2327); format: functional;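 note: NIH-3T3 mouse fibroblasts cultured with fluconazole at 8 µg/mL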
[5] = fluconazole-exposed Candida albicans growth modulators – fluorescence, retest, confirmation (AID 2467); format: functional, cell-based
[6] = blockers of HIV-1 ZM109 envelope-driven cell-cell fusion – HeLa effector, CEM target cells, luciferase, cherry-pick, dose response (AID 652058); format: functional, cell-based;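 note: luciferase signal from HIV-1 Env mediated cell-cell fusion of effector and target cells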
[7] = blockers of HIV-1 envelope-mediated cell-cell fusion – cherry-pick, dose response (AID 652057); format: functional, cell-based
[8] = biological target: T3, Aminopeptidase N (Plasmodium falciparum FcB1/Columbia, UniProt O96935); test: malaria alanyl aminopeptidase activity blockers – biochemical, fluorogenic H-Leu-NHMec substrate, 1536-well (AID 1445); parameters: species or system Plasmodium falciparum 3D7, 3D7
T3 sequence (O96935 whole entry): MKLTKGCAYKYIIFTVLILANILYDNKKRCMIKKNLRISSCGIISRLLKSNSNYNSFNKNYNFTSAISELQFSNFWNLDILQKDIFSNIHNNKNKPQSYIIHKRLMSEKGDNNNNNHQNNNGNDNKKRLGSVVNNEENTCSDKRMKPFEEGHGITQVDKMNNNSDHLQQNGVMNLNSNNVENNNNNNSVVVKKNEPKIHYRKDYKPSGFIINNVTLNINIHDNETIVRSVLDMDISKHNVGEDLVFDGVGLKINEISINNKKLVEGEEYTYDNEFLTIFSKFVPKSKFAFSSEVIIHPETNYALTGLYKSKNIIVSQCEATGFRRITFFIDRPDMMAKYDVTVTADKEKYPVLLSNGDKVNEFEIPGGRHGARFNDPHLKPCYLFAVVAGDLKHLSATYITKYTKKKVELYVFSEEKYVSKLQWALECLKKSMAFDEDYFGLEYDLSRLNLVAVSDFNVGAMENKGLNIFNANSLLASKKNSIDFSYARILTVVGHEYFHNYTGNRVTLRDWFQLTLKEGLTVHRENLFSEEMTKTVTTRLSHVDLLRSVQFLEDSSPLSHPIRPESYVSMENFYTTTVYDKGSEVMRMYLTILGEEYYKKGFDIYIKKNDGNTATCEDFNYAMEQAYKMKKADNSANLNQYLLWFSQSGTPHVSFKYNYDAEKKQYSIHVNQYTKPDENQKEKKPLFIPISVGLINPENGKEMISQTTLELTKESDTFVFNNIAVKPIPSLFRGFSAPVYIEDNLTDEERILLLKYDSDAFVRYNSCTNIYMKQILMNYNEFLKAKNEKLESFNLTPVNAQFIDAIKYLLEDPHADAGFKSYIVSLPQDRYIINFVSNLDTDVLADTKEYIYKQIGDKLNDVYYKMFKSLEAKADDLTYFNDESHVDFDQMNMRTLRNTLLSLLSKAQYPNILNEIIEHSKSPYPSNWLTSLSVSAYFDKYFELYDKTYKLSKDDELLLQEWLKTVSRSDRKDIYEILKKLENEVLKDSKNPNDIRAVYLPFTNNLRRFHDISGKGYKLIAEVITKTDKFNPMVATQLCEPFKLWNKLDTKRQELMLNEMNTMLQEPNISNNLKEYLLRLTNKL

[9] = biological target: T4, Polyadenylate-binding protein 1 (Homo sapiens, UniProt P11940); test: MLLE binding blockers, Cy5 peptide tracer – biochemical, fluorescence polarization, Cy5-PAM2 peptide, secondary, miRNA deadenylation inhibitor project, dose response (AID 602260); format: functional; conditions: read-out: IC50_Mean
[10] = biological target: T4, Polyadenylate-binding protein 1; test: MLLE domain peptide-binding blockers, IC50 – biochemical, fluorescence polarization, FITC-PAM2 peptide, dose response (AID 602259); format: functional; conditions: read-out: IC50_Mean
[11] = biological target: Induced myeloid leukemia cell differentiation protein Mcl-1 (Homo sapiens, UniProt Q07820); format: functional
[12] = viability of PTEN-deleted HCT116 cells – cell-based, HCT116 PTEN knockout, dose response (AID 1047); format: functional;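 note: HCT116 colon tumor cells with PTEN knocked out; cells exposed to compound for 60 hours before readout; potency for loss of cell viability measured by luminescence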
[13] = viability of HCT116 lacking mutant beta-catenin – cell-based, human colon tumor, dose response (AID 1045); format: functional;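 note: HCT116 colon tumor cells with beta catenin knocked out; cells exposed to compound for 60 hours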
[14] = system: Streptococcus sp. 'group A'; test: Streptococcus pyogenes SK(-)GAS viability under kanamycin – luminescence, BacTiterGlo, confirmation, counter-screen for streptokinase expression inhibitor project, dose response (AID 1900); format: functional, organism-based
[15] = biological target: T5, Streptokinase A (Streptococcus pyogenes serotype M1, UniProt P10520); test: viability-normalized secreted streptokinase activity reduction – plasminogen activation absorbance, OD405, dose response (AID 1914); format: functional, Streptococcus pyogenes M1 GAS;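 note: secreted streptokinase activity via plasminogen activation per viability signal from cell pellet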
T5 sequence (P10520 whole entry): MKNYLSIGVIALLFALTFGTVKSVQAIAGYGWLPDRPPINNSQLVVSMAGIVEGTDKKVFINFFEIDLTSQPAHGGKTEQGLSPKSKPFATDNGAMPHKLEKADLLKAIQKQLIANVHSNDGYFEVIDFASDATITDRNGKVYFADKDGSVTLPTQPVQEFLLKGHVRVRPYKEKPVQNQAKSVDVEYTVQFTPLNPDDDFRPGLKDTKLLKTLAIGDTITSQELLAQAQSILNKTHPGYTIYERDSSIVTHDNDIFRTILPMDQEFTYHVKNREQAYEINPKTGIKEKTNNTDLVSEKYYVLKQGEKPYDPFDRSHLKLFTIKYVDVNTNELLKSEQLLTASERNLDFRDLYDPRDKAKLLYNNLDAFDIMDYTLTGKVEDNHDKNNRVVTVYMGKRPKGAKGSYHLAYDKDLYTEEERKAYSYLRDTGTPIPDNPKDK

[16] = system: Streptococcus; test: GAS UMAA2166 growth inhibition – luminescence, BacTiterGlo, counter-screen for streptokinase expression inhibitor project, dose response (AID 1915); format: functional, organism-based;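 note: potency for reduction of bacterial viability or growth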
[17] = system: HEK293; test: EBV LMP1 TES2 canonical NF-kB signalling blockers – cell-based, HEK293, luciferase, cherry-pick, dose response (AID 588343); format: functional; conditions: Homo sapiens
[18] = biological target: T6, Rac GTPase-activating protein 1 (Homo sapiens, UniProt Q9H0H5); test: blockers of MgcRacGAP-driven Rac1 GTP hydrolysis – biochemical, ADP Hunter fluorescence, primary and confirmatory, confirmation (AID 624330); format: functional
T6 sequence (Q9H0H5 whole entry): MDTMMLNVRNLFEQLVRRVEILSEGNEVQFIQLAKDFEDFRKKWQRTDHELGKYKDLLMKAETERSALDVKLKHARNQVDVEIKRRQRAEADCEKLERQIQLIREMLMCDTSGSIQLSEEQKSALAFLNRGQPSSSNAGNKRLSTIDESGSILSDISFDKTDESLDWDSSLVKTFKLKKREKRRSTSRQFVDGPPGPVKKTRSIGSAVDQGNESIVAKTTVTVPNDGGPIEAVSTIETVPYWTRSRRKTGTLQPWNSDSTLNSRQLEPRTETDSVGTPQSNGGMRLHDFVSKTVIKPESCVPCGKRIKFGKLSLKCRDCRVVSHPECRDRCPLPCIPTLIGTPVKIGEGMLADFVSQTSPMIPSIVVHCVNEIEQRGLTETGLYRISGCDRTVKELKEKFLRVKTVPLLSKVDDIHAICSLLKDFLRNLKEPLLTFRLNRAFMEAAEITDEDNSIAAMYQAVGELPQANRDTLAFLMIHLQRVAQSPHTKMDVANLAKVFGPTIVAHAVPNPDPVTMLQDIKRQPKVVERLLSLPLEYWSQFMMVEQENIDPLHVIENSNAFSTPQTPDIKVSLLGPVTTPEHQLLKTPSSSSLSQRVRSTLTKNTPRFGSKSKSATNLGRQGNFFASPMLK

T4 sequence (P11940 whole entry, the tested form may be a part): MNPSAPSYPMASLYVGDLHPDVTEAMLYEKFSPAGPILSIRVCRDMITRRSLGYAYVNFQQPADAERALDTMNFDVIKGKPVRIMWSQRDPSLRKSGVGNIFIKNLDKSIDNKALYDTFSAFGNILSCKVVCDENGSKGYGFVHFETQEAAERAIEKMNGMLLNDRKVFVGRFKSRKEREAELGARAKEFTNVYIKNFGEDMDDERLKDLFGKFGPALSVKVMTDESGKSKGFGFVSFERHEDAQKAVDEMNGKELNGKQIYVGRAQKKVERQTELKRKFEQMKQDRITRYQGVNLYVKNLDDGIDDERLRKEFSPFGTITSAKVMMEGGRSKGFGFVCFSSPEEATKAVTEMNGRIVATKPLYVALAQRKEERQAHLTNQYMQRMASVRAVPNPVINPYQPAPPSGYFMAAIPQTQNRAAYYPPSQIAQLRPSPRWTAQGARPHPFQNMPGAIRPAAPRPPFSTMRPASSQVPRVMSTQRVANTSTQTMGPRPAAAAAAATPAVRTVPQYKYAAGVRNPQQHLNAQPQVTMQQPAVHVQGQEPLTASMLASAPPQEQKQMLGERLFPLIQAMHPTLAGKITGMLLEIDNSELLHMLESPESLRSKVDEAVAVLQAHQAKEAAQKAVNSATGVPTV
Chain of Induced myeloid leukemia cell differentiation protein Mcl-1 (Q07820 whole entry): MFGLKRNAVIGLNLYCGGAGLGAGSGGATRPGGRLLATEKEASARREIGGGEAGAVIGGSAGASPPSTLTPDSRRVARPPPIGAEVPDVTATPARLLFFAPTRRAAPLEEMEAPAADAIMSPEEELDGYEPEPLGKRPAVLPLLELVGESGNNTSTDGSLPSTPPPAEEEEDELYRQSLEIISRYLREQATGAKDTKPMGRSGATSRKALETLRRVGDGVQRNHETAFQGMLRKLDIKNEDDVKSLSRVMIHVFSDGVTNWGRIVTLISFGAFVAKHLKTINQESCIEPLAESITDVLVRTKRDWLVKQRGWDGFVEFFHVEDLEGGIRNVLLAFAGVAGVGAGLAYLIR

## COc1ccc(-c2ccc3ccccc3n2)cc1OC
[1]
  AC50: 46.8 µM (active)

## Cc1cccc(C)c1OCc1cc(C(=O)N2CCN(C3CCCC3)CC2)no1
[2]
  IC50: > 100 µM (inactive)
[3]
  IC50: 19.1 µM (active)

## CSC(=Nc1ccc(Cl)cc1)NS(=O)(=O)c1cccs1
[4]
  EC50: > 150 µM (inactive)
[5]
  EC50: 1.15 µM (active)

## CC1=C(C(=O)Nc2cccc(C(=O)NC3CCCCC3C)c2)SCCO1 (stereo not given)
[3]
  IC50: 13.2 µM (active)

## O=C(NCc1ccccc1)[C@@H]1CCCN1C(=O)[C@@H]1CCCN1C(=O)c1cccc2ccccc12
[6]
  AC50: 36 µM (active)
[7]
  AC50: 54.2 µM (active)

## COC(=O)CN1C(=O)C2(C(C#N)=C(N)Oc3[nH]nc(-c4cccs4)c32)c2ccccc21 (stereo not given)
[8]
  IC50: 36.7 µM (active)

## CC1CCCCC1NC(=O)CN1C(=O)c2cccc(N)c2C1=O (stereo not given)
[9]
  IC50: > 66 µM (inactive)
[10]
  IC50: 35.5 µM (inactive)

## CCOc1ccccc1C(=O)N1CCN=C1SCc1cccnc1
[9]
  IC50: > 66 µM (inactive)
[10]
  IC50: > 66 µM (inactive)

## COc1ccc(-c2nn(CCC(=O)O)cc2/C=C2\SC(N)=NC2=O)cc1OC
[11]
  IC50: 4.63 µM (active)

## COc1ccc(C(C(=O)NC2CCCCC2)N(CC2CCCO2)C(=O)C2COc3ccccc3O2)cc1OC (stereo not given)
[12]
  EC50: 12.7 µM (active)
[13]
  EC50: 19.5 µM (active)

## COc1ccccc1C(=O)/C=C/c1ccc(N2CCCCC2)c([N+](=O)[O-])c1
[12]
  EC50: 5.52 µM (active)
[13]
  EC50: 4.48 µM (active)

## Cc1ccc(O)c(C2=NNC(c3ccc(Cl)cc3)C2)c1 (stereo not given)
[14]
  EC50: 4.36 µM (active)
[4]
  EC50: > 160 µM (inactive)
[15]
  EC50: > 150 µM (not active)
[5]
  EC50: 3.23 µM (active)
[16]
  EC50: 9.12 µM (active)

## CSc1ccccc1NC(=O)Nc1ccc(Cl)cc1
[12]
  EC50: 68.5 µM (active)
[13]
  EC50: 46.5 µM (active)

## COC(=O)C(C)N1C(=O)S/C(=C/c2cc(C)n(C(C)C)c2C)C1=O (stereo not given)
[1]
  AC50: 52.9 µM (active)

## Cc1cc(OC(C)C(=O)Nc2ccc(S(=O)(=O)Nc3onc(C)c3C)cc2)cc(C)c1Cl (stereo not given)
[3]
  IC50: 3.98 µM (active)

## O=C(c1ccc(Cl)cc1)N1CCN(CCOc2ccccc2)CC1
[17]
  AC50: > 350 µM (inactive)

## COC(=O)[C@@]1(C)[C@H]2C(=O)N(Cc3ccccc3)C(=O)[C@H]2[C@H]2CN=C(SCC(=O)c3ccccc3)N21
[9]
  IC50: > 66 µM (inactive)
[10]
  IC50: > 66 µM (inactive)

## O=C(CSc1n[nH]c(-c2ccccc2)n1)Nc1ncc(Br)cc1Br
[3]
  IC50: 14.5 µM (active)

## CCc1nc(Nc2ccc(N3CCN(C(C)=O)CC3)cc2)c2oc3ccccc3c2n1
[18]
  IC50: 36.8 µM (active)
[11]
  IC50: 5.67 µM (not active)

## CN1CCC(N(C)c2nc(-c3ccc([N+](=O)[O-])cc3)nc3ccccc23)CC1
[12]
  EC50: 5.17 µM (active)
[13]
  EC50: 4.29 µM (active)
[11]
  IC50: 3.99 µM (active)

## C/C(=N\N=C(N)N)c1ccc(Cl)cc1Cl
[3]
  IC50: 14.8 µM (active)

## COCC(C)n1c(SCC(=O)Nc2nccs2)nc2ccccc2c1=O (stereo not given)
[9]
  IC50: > 66 µM (inactive)
[10]
  IC50: > 66 µM (inactive)

## O=C(Cc1ccc(F)cc1)N/N=C/c1ccc(-c2ccc(Cl)c(C(=O)O)c2)o1
[8]
  IC50: 22.9 µM (active)

From ChEMBL document CHEMBL1201862, “PubChem BioAssay data set” (2004)
